Earlier results as cited in article PMC12736120, “First-in-Human Phase I Clinical Trial of SLC-391, a Novel and Selective AXL Inhibitor, in Patients with Advanced Solid Tumours” (Pharmaceuticals, 2025).

Test system: MER
Settings: stated in the Introduction, no reference given; read-out: IC50 against MER; cited from earlier work

For `Nc1ncc(-c2cnn(C3CCNCC3)c2)cc1-c1nnc(CC2CC2)o1` [SLC-391, 3-(5-[cyclopropylmethyl]-1,3,4-oxadiazol-2-yl)-5-(1-[piperidin-4-yl]-1H-pyrazol-4-yl)-pyridin-2-amine], the IC50 is listed as 44 nM.
